Values of other authors in patent publication US20230073516A1, “INTRAORAL FAST-DISINTEGRATING FORMULATION CONTAINING HEMP OIL EXTRACT OR HEMP POWDER EXTRACT AS RAW MATERIAL OF FORMULATION” (CTC SCIENCE INC., priority 2019, published 2023).

Details: absorbed while passing through the gastrointestinal tract

C=C(C)[C@@H]1CCC(C)=C[C@H]1c1c(O)cc(CCCCC)cc1O [cannabidiol]
Bioavailability of cannabidiol: 13-19%
